Results reported in publication PMC11822212, “High-throughput screening identifies Aurora kinase B as a critical therapeutic target for Merkel cell carcinoma” (Nature Communications, 2025).
Where “and” joins values, the source holds several entries; their conditions need not be identical. Equal values may be shown once. Read-outs that look alike come from different tables or passages of the source.

Experiments:
Test in all cases: qHTS cell viability (CellTiter-Glo, 72 h; primary and follow-up small molecule screen)
Type in all cases: cell-based, human
UISO cells (VN-MCC) = tested on: UISO cells (VN-MCC)
MCC13 cells (VN-MCC) = tested on: MCC13 cells (VN-MCC)
MKL-2 cells (VP-MCC) = tested on: MKL-2 cells (VP-MCC)
MCC26 cells (VN-MCC) = tested on: MCC26 cells (VN-MCC)
WAGA cells (VP-MCC) = tested on: WAGA cells (VP-MCC)
MKL-1 cells (VP-MCC) = tested on: MKL-1 cells (VP-MCC)
[1] = follow-up screen, UISO, replicate 1
[2] = follow-up screen, UISO, replicate 2
[3] = follow-up screen, UISO, replicate 3
[4] = follow-up screen, MCC13, replicate 1
[5] = follow-up screen, MCC13, replicate 2
[6] = follow-up screen, MCC13, replicate 3
[7] = follow-up screen, MKL-2, replicate 1
[8] = follow-up screen, MKL-2, replicate 2
[9] = follow-up screen, MKL-2, replicate 3
[10] = follow-up screen, MCC26, replicate 1
[11] = follow-up screen, MCC26, replicate 2
[12] = follow-up screen, MCC26, replicate 3
[13] = follow-up screen, WAGA, replicate 1
[14] = follow-up screen, WAGA, replicate 2
[15] = follow-up screen, WAGA, replicate 3
[16] = follow-up screen, MKL-1, replicate 1
[17] = follow-up screen, MKL-1, replicate 2
[18] = follow-up screen, MKL-1, replicate 3

| SMILES | Area under the dose-response curve (AUC) UISO Replicate 1 (UISO cells (VN-MCC)) | Area under the dose-response curve (AUC) UISO Replicate 2 (UISO cells (VN-MCC)) | Area under the dose-response curve (AUC) UISO Replicate 3 (UISO cells (VN-MCC)) | Area under the dose-response curve (AUC) MCC13 Replicate 1 (MCC13 cells (VN-MCC)) | Area under the dose-response curve (AUC) MCC13 Replicate 2 (MCC13 cells (VN-MCC)) | Area under the dose-response curve (AUC) MCC13 Replicate 3 (MCC13 cells (VN-MCC)) | Area under the dose-response curve (AUC) MKL-2 Replicate 1 (MKL-2 cells (VP-MCC)) | Area under the dose-response curve (AUC) MKL-2 Replicate 2 (MKL-2 cells (VP-MCC)) | Area under the dose-response curve (AUC) MKL-2 Replicate 3 (MKL-2 cells (VP-MCC)) | Area under the dose-response curve (AUC) MCC26 Replicate 1 (MCC26 cells (VN-MCC)) | Area under the dose-response curve (AUC) MCC26 Replicate 2 (MCC26 cells (VN-MCC)) | Area under the dose-response curve (AUC) MCC26 Replicate 3 (MCC26 cells (VN-MCC)) | Area under the dose-response curve (AUC) WAGA Replicate 1 (WAGA cells (VP-MCC)) | Area under the dose-response curve (AUC) WAGA Replicate 2 (WAGA cells (VP-MCC)) | Area under the dose-response curve (AUC) WAGA Replicate 3 (WAGA cells (VP-MCC)) | Area under the dose-response curve (AUC) MKL-1 Replicate 1 (MKL-1 cells (VP-MCC)) | Area under the dose-response curve (AUC) MKL-1 Replicate 2 (MKL-1 cells (VP-MCC)) | Area under the dose-response curve (AUC) MKL-1 Replicate 3 (MKL-1 cells (VP-MCC)) | Area under the dose-response curve (AUC) UISO Replicate 1 (UISO cells (VN-MCC); [1]) | Area under the dose-response curve (AUC) UISO Replicate 2 (UISO cells (VN-MCC); [2]) | further results |
| --- | --- | --- | --- | --- | --- | --- | --- | --- | --- | --- | --- | --- | --- | --- | --- | --- | --- | --- | --- | --- | --- |
| O.O=c1c2ccc(O)c(O)c2oc2c(O)c(O)ccc12 [3,4,5,6-Tetrahydroxyxanthone hydrate] | – | – | – | – | – | – | – | – | – | – | – | – | – | – | – | – | – | – | – | – | Area under the dose-response curve (AUC) (UISO cells (VN-MCC)): 455.2 and 451.1 and 430.7; Area under the dose-response curve (AUC) (MCC13 cells (VN-MCC)): 500.0 and 470.6 and 462.5; Area under the dose-response curve (AUC) (MKL-2 cells (VP-MCC)): 454.0 and 468.2 and 444.8; Area under the dose-response curve (AUC) (MCC26 cells (VN-MCC)): 448.2 and 449.4 and 459.1; Area under the dose-response curve (AUC) (WAGA cells (VP-MCC)): 510.8 and 453.0 and 432.4; Area under the dose-response curve (AUC) (MKL-1 cells (VP-MCC)): 474.6 and 473.6 and 453.4 |
| CC[C@@]1(O)C(=O)OCc2c1cc1n(c2=O)Cc2cc3cc(O)ccc3nc2-1 [10-hydroxycamptothecin] | 187.9 | 199.3 | 183.4 | 287.3 | 291.9 | 277.2 | 184.7 | 164.5 | 246.0 | 260.5 | 244.0 | 250.0 | 195.8 | 197.2 | 184.4 | 214.0 | 217.0 | 223.0 | – | – | – |
| Nc1ncnc2c1ncn2[C@@H]1O[C@H](CO)[C@@H](O)[C@H]1O [Adenosine] | – | – | – | – | – | – | – | – | – | – | – | – | – | – | – | – | – | – | 514.9 | 502.8 | Area under the dose-response curve (AUC) UISO Replicate 3 (UISO cells (VN-MCC); [3]): 486.4; Area under the dose-response curve (AUC) MCC13 Replicate 1 (MCC13 cells (VN-MCC); [4]): 550.6; Area under the dose-response curve (AUC) MCC13 Replicate 2 (MCC13 cells (VN-MCC); [5]): 498.0; Area under the dose-response curve (AUC) MCC13 Replicate 3 (MCC13 cells (VN-MCC); [6]): 487.2; Area under the dose-response curve (AUC) MKL-2 Replicate 1 (MKL-2 cells (VP-MCC); [7]): 483.1; Area under the dose-response curve (AUC) MKL-2 Replicate 2 (MKL-2 cells (VP-MCC); [8]): 500.4; Area under the dose-response curve (AUC) MKL-2 Replicate 3 (MKL-2 cells (VP-MCC); [9]): 489.0; Area under the dose-response curve (AUC) MCC26 Replicate 1 (MCC26 cells (VN-MCC); [10]): 484.4; Area under the dose-response curve (AUC) MCC26 Replicate 2 (MCC26 cells (VN-MCC); [11]): 450.7; Area under the dose-response curve (AUC) MCC26 Replicate 3 (MCC26 cells (VN-MCC); [12]): 501.0; Area under the dose-response curve (AUC) WAGA Replicate 1 (WAGA cells (VP-MCC); [13]): 557.9; Area under the dose-response curve (AUC) WAGA Replicate 2 (WAGA cells (VP-MCC); [14]): 476.1; Area under the dose-response curve (AUC) WAGA Replicate 3 (WAGA cells (VP-MCC); [15]): 490.2; Area under the dose-response curve (AUC) MKL-1 Replicate 1 (MKL-1 cells (VP-MCC); [16]): 523.5; Area under the dose-response curve (AUC) MKL-1 Replicate 2 (MKL-1 cells (VP-MCC); [17]): 521.0; Area under the dose-response curve (AUC) MKL-1 Replicate 3 (MKL-1 cells (VP-MCC); [18]): 519.8 |
| CCC(=O)CCCCC[C@@H]1NC(=O)[C@H]2CCCCN2C(=O)[C@H]([C@@H](C)CC)NC(=O)[C@H](Cc2cn(OC)c3ccccc23)NC1=O [Apicidin] | 287.8 | 286.2 | 272.4 | 352.8 | 341.2 | 320.0 | 250.3 | 267.1 | 303.9 | 312.3 | 327.5 | 296.4 | 264.4 | 253.3 | 235.6 | 315.8 | 299.2 | 285.0 | – | – | – |
| COc1ccc(C(=O)CC(=O)c2ccc(C(C)(C)C)cc2)cc1 [Avobenzone] | – | – | – | – | – | – | – | – | – | – | – | – | – | – | – | – | – | – | 448.1 | 466.1 | Area under the dose-response curve (AUC) UISO Replicate 3 (UISO cells (VN-MCC); [3]): 426.5; Area under the dose-response curve (AUC) MCC13 Replicate 1 (MCC13 cells (VN-MCC); [4]): 464.5; Area under the dose-response curve (AUC) MCC13 Replicate 2 (MCC13 cells (VN-MCC); [5]): 464.7; Area under the dose-response curve (AUC) MCC13 Replicate 3 (MCC13 cells (VN-MCC); [6]): 487.0; Area under the dose-response curve (AUC) MKL-2 Replicate 1 (MKL-2 cells (VP-MCC); [7]): 491.6; Area under the dose-response curve (AUC) MKL-2 Replicate 2 (MKL-2 cells (VP-MCC); [8]): 475.6; Area under the dose-response curve (AUC) MKL-2 Replicate 3 (MKL-2 cells (VP-MCC); [9]): 463.7; Area under the dose-response curve (AUC) MCC26 Replicate 1 (MCC26 cells (VN-MCC); [10]): 418.2; Area under the dose-response curve (AUC) MCC26 Replicate 2 (MCC26 cells (VN-MCC); [11]): 424.5; Area under the dose-response curve (AUC) MCC26 Replicate 3 (MCC26 cells (VN-MCC); [12]): 411.6; Area under the dose-response curve (AUC) WAGA Replicate 1 (WAGA cells (VP-MCC); [13]): 495.5; Area under the dose-response curve (AUC) WAGA Replicate 2 (WAGA cells (VP-MCC); [14]): 492.2; Area under the dose-response curve (AUC) WAGA Replicate 3 (WAGA cells (VP-MCC); [15]): 489.4; Area under the dose-response curve (AUC) MKL-1 Replicate 1 (MKL-1 cells (VP-MCC); [16]): 452.4; Area under the dose-response curve (AUC) MKL-1 Replicate 2 (MKL-1 cells (VP-MCC); [17]): 457.3; Area under the dose-response curve (AUC) MKL-1 Replicate 3 (MKL-1 cells (VP-MCC); [18]): 467.2 |
| O=C(O)CC(C(=O)O)n1c(O)c(C2=c3cc(Br)ccc3=NC2=O)sc1=S (stereo not drawn) [BCL6 Inhibitor] | – | – | – | – | – | – | – | – | – | – | – | – | – | – | – | – | – | – | – | – | Area under the dose-response curve (AUC) (UISO cells (VN-MCC)): 463.7 and 453.9 and 421.4; Area under the dose-response curve (AUC) (MCC13 cells (VN-MCC)): 512.5 and 484.7 and 473.4; Area under the dose-response curve (AUC) (MKL-2 cells (VP-MCC)): 493.8 and 494.8 and 466.7; Area under the dose-response curve (AUC) (MCC26 cells (VN-MCC)): 463.9 and 441.3 and 491.7; Area under the dose-response curve (AUC) (WAGA cells (VP-MCC)): 531.4 and 497.2 and 476.9; Area under the dose-response curve (AUC) (MKL-1 cells (VP-MCC)): 525.6 and 554.1 and 496.0 |
| O=C1Nc2cc(Br)ccc2/C1=C1/Nc2ccccc2/C1=N\O [BIO] | 266.6 | 275.6 | 251.6 | 481.8 | 449.1 | 449.8 | 490.0 | 435.9 | 463.9 | 419.0 | 405.4 | 424.1 | 533.5 | 491.3 | 474.9 | 450.0 | 447.7 | 422.6 | – | – | – |
| CO/C1=C\C(C)=C\[C@@H](C)[C@@H](O)[C@@H](C)C/C(C)=C/C=C/[C@H](OC)[C@@H]([C@@H](C)[C@@H](O)[C@H](C)[C@@]2(O)C[C@@H](O)[C@H](C)[C@@H](C(C)C)O2)OC1=O [Bafilomycin A1] | – | – | – | – | – | – | – | – | – | – | – | – | – | – | – | – | – | – | 306.5 | 264.4 | Area under the dose-response curve (AUC) UISO Replicate 3 (UISO cells (VN-MCC); [3]): 311.8; Area under the dose-response curve (AUC) MCC13 Replicate 1 (MCC13 cells (VN-MCC); [4]): 343.3; Area under the dose-response curve (AUC) MCC13 Replicate 2 (MCC13 cells (VN-MCC); [5]): 351.4; Area under the dose-response curve (AUC) MCC13 Replicate 3 (MCC13 cells (VN-MCC); [6]): 328.2; Area under the dose-response curve (AUC) MKL-2 Replicate 1 (MKL-2 cells (VP-MCC); [7]): 338.8; Area under the dose-response curve (AUC) MKL-2 Replicate 2 (MKL-2 cells (VP-MCC); [8]): 333.5; Area under the dose-response curve (AUC) MKL-2 Replicate 3 (MKL-2 cells (VP-MCC); [9]): 368.3; Area under the dose-response curve (AUC) MCC26 Replicate 1 (MCC26 cells (VN-MCC); [10]): 325.4; Area under the dose-response curve (AUC) MCC26 Replicate 2 (MCC26 cells (VN-MCC); [11]): 330.5; Area under the dose-response curve (AUC) MCC26 Replicate 3 (MCC26 cells (VN-MCC); [12]): 331.3; Area under the dose-response curve (AUC) WAGA Replicate 1 (WAGA cells (VP-MCC); [13]): 341.4; Area under the dose-response curve (AUC) WAGA Replicate 2 (WAGA cells (VP-MCC); [14]): 394.8; Area under the dose-response curve (AUC) WAGA Replicate 3 (WAGA cells (VP-MCC); [15]): 342.5; Area under the dose-response curve (AUC) MKL-1 Replicate 1 (MKL-1 cells (VP-MCC); [16]): 341.8; Area under the dose-response curve (AUC) MKL-1 Replicate 2 (MKL-1 cells (VP-MCC); [17]): 384.5; Area under the dose-response curve (AUC) MKL-1 Replicate 3 (MKL-1 cells (VP-MCC); [18]): 316.5 |
